{"source": "paper PMC11234460", "about": "“In Silico Discovery of Stapled Peptide Inhibitor Targeting the Nur77‐PPARγ Interaction and Its Anti‐Breast‐Cancer Efficacy” (Advanced Science, 2024)", "key": {"MDA-MB-231 cells": {"test_system": "MDA-MB-231 cells", "assay": "Scratch (wound-healing) assay", "format": "cell-based", "settings": "MDA-MB-231, 12 h", "procedure": "(§1) MCF7 and MDA‐MB‐231 cells were seeded in 6‐well plates and cultured overnight. Once the cell density reached 90%, a line was scratched along the center of the 6‐well plate and images were taken randomly in the scratch domain under a microscope. The cells in each well were then treated with peptides of varying concentrations for 12 h, after which images were taken again in the scratch domain. The formula used to calculate the scratch healing rate was as follows: Scratch healing rate (%) = [(Scratch area at 0 h – Scratch area at 12 h) […] Scratch area at 0 h] × 100%."}, "MCF7 cells [1]": {"test_system": "MCF7 cells", "assay": "Scratch (wound-healing) assay", "format": "cell-based, human", "settings": "MCF7, 12 h", "procedure": "as §1"}, "MCF7 cells [2]": {"test_system": "MCF7 cells", "assay": "Western blot of Nur77, CD36 and FABP4", "format": "cell-based, human", "procedure": "MCF7 and MDA‐MB‐231 cells were treated with various concentrations of peptide. The cells were then collected and lysed in NP40 lysis buffer. Total protein was quantified using a BCA assay kit (Beyotime, P0010S). The proteins were separated by SDS‐PAGE and transferred onto a PVDF membrane. The PVDF membrane was blocked in TBST containing 5% non‐fat milk, and then incubated with primary antibodies overnight at 4 °C. Subsequently, membranes were incubated with horseradish peroxidase‐conjugated antirabbit or antimouse IgG secondary antibody for 1 h at room temperature. The membranes were analyzed by a Tanon‐5200 Multi Gel Imaging Analysis System (Tanon) and quantified by ImageJ software."}, "[3]": {"test_system": "Nur77-knockdown MCF7 and MDA-MB-231 cells", "assay": "Cell viability assay (CCK-8), Nur77-knockdown breast tumor cells", "format": "cell-based", "settings": "Nur77-knockdown MCF7 and MDA-MB-231, 24 h", "procedure": "Cells were seeded 24 h prior to transfection. Transfection was performed with Transfect‐Mate (GenePharma, G04009) according to the manufacturer's protocols. To transfect siRNA into cells seeded on 6 well cell culture plates, 150 pmol of siRNA was mixed with 8 µL Transfect‐Mate, incubated at room temperature for 15 min, and then added to the cells. The medium was changed to DMEM after 6 h of culture, and the cells were incubated at 37 °C in a 5% CO2 incubator. 48 h later, the siRNA was successfully expressed and could be used for further experiments. The siRNAs used were listed in Table S1 (Supporting Information)."}, "Nur77-PPARγ interaction": {"target": "T1, Nur77-PPARγ interaction (Homo sapiens, UniProt P22736)", "T1 construct": "expressed in transfected cells; host or cells: HEK293T", "assay": "Co-immunoprecipitation (IP: Nur77; IB: PPARγ, Trim13) in HEK293T cells", "format": "cell-based", "settings": "1 × 10^−5 M, 24 h", "procedure": "HEK293T cells were seeded overnight in 10 cm culture dishes and transfected with the Nur77 and PPARγ plasmids for 48 h. After transfection, T‐CY14 and ST‐CY14 were incubated with the cells for 24 h. The cells were then collected and lysed in 500 µL precooled NP40 lysis buffer (Beyotime, P0013F), which contained 20x […] and 50x phosphatase inhibitor. All the samples were prepared at a concentration of 1 mg mL^−1, and 0.5 mg of the sample was subsequently incubated overnight at 4 °C with 2 µg of Nur77 antibody (Proteintech, 12235‐1‐AP). The samples were then incubated with Protein A/G PLUS‐Agarose (Santa Cruz, sc‐2003) for 4 h at 4 °C. The beads were collected through centrifugation and washed five times with NP40 lysis buffer. Finally, 5x loading buffer was added to the buffer containing the beads for Western blot analysis of PPARγ antibody (Proteintech, 16643‐1‐AP), Trim13 antibody (Abcam, ab234847), and β‐actin antibody (epizyme, LF201)."}, "α-chymotrypsin [4]": {"target": "α-chymotrypsin (Bos taurus, UniProt P00766)", "assay": "Protease stability in α-chymotrypsin solution", "format": "in vitro ADME", "settings": "α-chymotrypsin, PBS pH 7.4, room temperature", "procedure": "(§2) The peptides were dissolved in PBS (pH 7.4) to a final concentration of 1 × 10^−3 M. α‐Chymotrypsin was dissolved in PBS (5 × 10^−2 M, containing 2 × 10^−3 M CaCl2, pH 7.4) to a final concentration of 0.5 ng µL^−1. Subsequently, 100 µL peptides were incubated with α‐chymotrypsin (1 mL) at room temperature, and 100 µL of the digestion mixture was collected at different times (5/10/20/30/60/120/240/480 min) and added to a centrifuge tube containing 20 µL of 1 M HCl to quench the enzymatic reaction. The solution of α‐Chymotrypsin peptide fragments was monitored by analytical HPLC to determine the fraction of protease degradation at 214 nm."}, "α-chymotrypsin [5]": {"test_system": "α-chymotrypsin", "assay": "Protease stability in α-chymotrypsin solution", "format": "in vitro ADME", "settings": "α-chymotrypsin solution; α-chymotrypsin 0.5 ng µL^−1 in PBS (5 × 10^−2 M, 2 × 10^−3 M CaCl2, pH 7.4); 100 µL of 1 × 10^−3 M peptide + 1 mL enzyme; room temperature; 5-480 min; quenched with 1 M HCl; analytical HPLC at 214 nm", "procedure": "as §2"}, "[6]": {"assay": "CD spectroscopy, α-helicity", "format": "physicochemical", "settings": "5 × 10^−5 M peptide in H2O, 25 °C, 1 mm cuvette, 185-260 nm", "procedure": "The detection wavelengths of the peptides were 214 and 254 nm. Solvent A: H2O (containing 0.1% TFA) and solvent B: acetonitrile (containing 0.1% TFA) were used as solvents in linear gradient mixtures. Peptide purification was performed by semi‐preparative HPLC using an XBridge Prep C18 column (19 × 250 mm, 10 µm particle size, flow rate of 20 mL min^−1). Solvents A and B were the same as those in the peptide analysis procedure. The peptides were dissolved in H2O to a final concentration of 5 × 10^−5 M. The purified peptide was detected using a mass spectrometer (6410 Triple Quad LC/MS, Agilent, USA) (Table S2, Supporting Information). The solvent was 80% methanol and 20% H2O (containing 0.1% formic acid). The CD spectra were obtained with a 1 mm quartz cuvette on a BRIGHT TIME Chirasca (Applied Photophysics, Britain) spectropolarimeter with a scan wavelength between 185–260 nm at 25 °C. The helicity of each peptide was calculated by the literature equation.^[ [24] ^]"}, "Nur77-LBD": {"target": "T2, Nur77-LBD (Homo sapiens, UniProt P22736)", "T2 construct": "The LBD fragment of human Nur77 (residues 351–598), tagged with an N‐terminal His6‐tag; His6 (N); made in house; host or cells: Escherichia coli BL21(DE3)", "T2 sequence (P22736 351-598)": "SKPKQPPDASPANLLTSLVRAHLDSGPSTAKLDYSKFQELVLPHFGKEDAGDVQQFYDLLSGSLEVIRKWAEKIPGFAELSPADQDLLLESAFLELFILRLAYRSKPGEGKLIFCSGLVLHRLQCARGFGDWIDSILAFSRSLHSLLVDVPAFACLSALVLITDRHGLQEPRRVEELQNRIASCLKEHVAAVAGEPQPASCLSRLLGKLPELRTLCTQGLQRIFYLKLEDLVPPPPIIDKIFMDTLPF", "assay": "Surface plasmon resonance (SPR), Biacore T200", "format": "binding", "settings": "read-out: ka (SPR)", "procedure": "ST‐CY14 with Nur77‐LBD was detected by SPR using the Biacore T200 system at 25 °C. Recombinant human Nur77‐LBD protein was immobilized on an activated carboxymethylated 5 sensor chip (GE Healthcare) using the amine coupling method. Gradient concentrations of […] were injected at a flow rate of 30 µL min^−1 in a running buffer (1% DMSO in PBS). The results were analyzed with Biacore evaluation software (T200 version 2.0). The data were fitted to the 1:1 Langmuir binding model, and kinetic parameters were derived."}}, "note": "Where a SMILES comes first, the peptide text is derived from it. Bridges are numbered along the chain shown (N, C = ends). [ ]: non-standard residue; d: D form. S5 = C=CCCC[C@](C)(N)C(=O)O"}
{"compound": "C[C@@H](O)[C@@H]1NC(=O)[C@H](CCCNC(=N)N)NC(=O)[C@H](CCCNC(=N)N)NC(=O)[C@@](C)(NC(=O)[C@H](Cc2ccccc2)NC(=O)CNC(=O)[C@H](CCCCN)NC(=O)[C@H](CS)NC(=O)CNC(=O)[C@H](CCC(=O)O)NC(=O)[C@@H](N)CS)CCCC=CCCC[C@@](C)(C(=O)N[C@@H](CCCNC(=N)N)C(=O)N[C@@H](Cc2ccc(O)cc2)C(=O)N[C@@H](Cc2ccc(O)cc2)C(=O)NCC(=O)N[C@@H](CCCNC(=N)N)C(=O)N[C@@H](CCCCN)C(=O)N[C@@H](CCCCN)C(=O)N[C@@H](CCCNC(=N)N)C(=O)N[C@@H](CCCNC(=N)N)C(=O)N[C@@H](CCC(N)=O)C(=O)N[C@@H](CCCNC(=N)N)C(=O)N[C@@H](CCCNC(=N)N)C(=O)N[C@@H](CCCNC(=N)N)C(N)=O)NC1=O", "note": "[ST-CY14] (H-CEGCKGF[S5]RRT[S5]RYYGRKKRRQRRR-NH2; staple 8-12)", "values": [{"measurement": "Scratch healing", "setting": "MDA-MB-231 cells", "result": "suppressed the scratch healing"}, {"measurement": "Scratch healing", "setting": "MCF7 cells [1]", "result": "suppressed the scratch healing"}, {"measurement": "CD36 and FABP4 protein expression (immunoblot)", "setting": "MCF7 cells [2]", "result": "inhibited the protein expression of CD36 and FABP4"}, {"measurement": "Nur77 protein expression (immunoblot)", "setting": "MCF7 cells [2]", "result": "increase in Nur77 expression"}, {"measurement": "Sensitivity of Nur77-knockdown breast tumor cells", "setting": "[3]", "result": "less sensitive to ST‐CY14"}, {"measurement": "Endogenous Nur77-PPARγ binding (Co-IP)", "setting": "Nur77-PPARγ interaction", "result": "inhibited the binding between Nur77 and PPARγ"}, {"measurement": "Trim13 and ubiquitination of Nur77 (Co-IP)", "setting": "Nur77-PPARγ interaction", "result": "obviously reduced the expression of Trim13 and attenuated the PPARγ‐induced ubiquitination of endogenous Nur77"}, {"measurement": "Improvement of proteolytic half-life versus T-CY14", "setting": "α-chymotrypsin [4]", "result": "seventeen‐fold improvement"}, {"measurement": "half-life at 90.9 µM", "setting": "α-chymotrypsin [5]", "result": 1.46, "unit": "h"}, {"measurement": "α-Helicity (CD)", "setting": "[6]", "result": 12.01, "unit": "%"}, {"measurement": "kon", "setting": "Nur77-LBD", "result": "1.6e+06", "unit": "M⁻¹ s⁻¹"}]}
